Source: PubChem BioAssay AID743472 (Broad Institute, 2014)
Values joined by “and” are separate entries in the source; they are usually repeats but may differ in a detail not shown here. Identical values can stand only once. Active and inactive are the calls of the source.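 How the source made its calls: active means fitted curve drops past -35% activity change at a concentration no higher than twice the top valid tested dose; inconclusive means no clear call, values can overlap the other calls; inactive means the rest, including activity opposite to the expected direction.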

tested on: not listed separately; assay: viability loss in A549 lung cells – cell-based, luminescence, dry powder, set 12, cytotoxicity control, dose response (AID 743472); details: A549 viability, CellTiter-Glo ATP luminescence, 72 h; at 1.35 µM (top of the series)

Row | SMILES | activity change, negative = cytotoxicity
1 | COc1cc([C@@H]2c3cc4c(cc3[C@@H](O[C@@H]3O[C@@H]5CO[C@@H](C)O[C@H]5[C@H](O)[C@H]3O)[C@H]3COC(=O)[C@H]23)OCO4)cc(OC)c1O | -9.02% (inactive)

same assay, conditions: A549 viability, CellTiter-Glo ATP luminescence, 72 h; at 1.6 µM (top of the series)

Row | SMILES | activity change, negative = cytotoxicity
2 | CCN(CCO)CCCOc1ccc2c(Nc3cc(CC(=O)Nc4cccc(F)c4)[nH]n3)ncnc2c1 | -5.27% (inactive)

same assay, conditions: A549 viability, CellTiter-Glo ATP luminescence, 72 h; at 3 µM (top of the series)

Row | SMILES | activity change, negative = cytotoxicity
3 | CC[C@@]1(O)C(=O)OCc2c1cc1n(c2=O)Cc2cc3c(CN(C)C)c(O)ccc3nc2-1 | -28% (inactive)

same assay, conditions: A549 viability, CellTiter-Glo ATP luminescence, 72 h; at 6 µM (top of the series)

Row | SMILES | activity change, negative = cytotoxicity
4 | Clc1ccc(-c2cnc3ccc(-c4ccccc4)cn23)cc1 | 9.24% (inactive)

same assay, conditions: A549 viability, CellTiter-Glo ATP luminescence, 72 h; at 12 µM (top of the series)

Row | SMILES | activity change, negative = cytotoxicity
5 | COc1ccc(NC(=O)Nc2ccc3c(c2)C(=O)N([C@@H](C)CO)C[C@H](C)[C@H](CN(C)Cc2ccc4c(c2)OCO4)O3)cc1 | -11.8% (inactive)

same assay, conditions: A549 viability, CellTiter-Glo ATP luminescence, 72 h; at 13.5 µM (top of the series)

Row | SMILES | activity change, negative = cytotoxicity
6 | CC(C)(O)CCc1ccc(O)c2c(=O)c3c(O)c4c(cc3oc12)O[C@H]1OC=C[C@@]41O | -4.12% (inactive)

same assay, conditions: A549 viability, CellTiter-Glo ATP luminescence, 72 h; at 26 µM (top of the series)

Row | SMILES | activity change, negative = cytotoxicity
7 | COc1cc(Nc2ncc3c(n2)-c2ccc(Cl)cc2C(c2c(F)cccc2OC)=NC3)ccc1C(=O)O | -19.8% (inactive)
8 | Cc1ccc(C2C(C#N)=C(N)Oc3cc(N)ccc32)cc1 (stereo not drawn) | 2.98% (inactive)
9 | Cc1ccc([N+](=O)[O-])cc1S(=O)(=O)N(C)C | -2.86% (inactive)
10 | COc1ccccc1C1C(C#N)=C(N)Oc2cc(N)ccc21 (stereo not drawn) | 3.41% (inactive)
11 | Cc1ccccc1C1C(C#N)=C(N)Oc2cc(N)ccc21 (stereo not drawn) | -2.49% (inactive)
12 | Cc1ccc(S(=O)(=O)N2CC[C@@H]3[C@@H](CO)Nc4ccc(-c5ccc(C#N)cc5)cc4[C@@H]32)cc1 | -24.8% (inactive)
13 | CC1(C)CC(c2nc(-c3ccc4ccc(-c5ccccc5)nc4c3)c3c(N)nccn23)C1 | -21.6% (inactive)
14 | COc1ccc(S(=O)(=O)N(C(C)=O)c2ccc(OC(C)=O)c3ccccc23)cc1[N+](=O)[O-] | -4.12% (inactive)
15 | COc1ccc(C2C(C#N)=C(N)Oc3cc(N)ccc32)cc1 (stereo not drawn) | 0.547% (inactive)
16 | COC(=O)c1ccc(C2C(C#N)=C(N)Oc3cc(N)ccc32)cc1 (stereo not drawn) | 4.1% (inactive)
17 | O=C(Nc1c(Cl)cncc1Cl)c1ccc(OC(F)F)c(OCC2CC2)c1 | 2.06% (inactive)
18 | CCC(C)(C)C(=O)O[C@H]1C[C@@H](C)C=C2C=C[C@H](C)[C@H](CC[C@@H]3C[C@@H](O)CC(=O)O3)[C@H]21 | 2.27% (inactive)
19 | COc1ccc(C2CNC(=O)C2)cc1OC1CCCC1 (stereo not drawn) | 3.58% (inactive)
20 | N#CC1=C(N)Oc2cc(N)ccc2C1c1ccc(Cl)cc1 (stereo not drawn) | -4.23% (inactive)
21 | CN(C(=O)CCCOc1ccc2[nH]c(=O)ccc2c1)C1CCCCC1 | -2.41% (inactive)
22 | N#CC1=C(N)Oc2cc(N)ccc2C12C(=O)Nc1ccc(Br)cc12 (stereo not drawn) | -0.931% (inactive)
23 | COc1ccc(C2=Nn3c(nnc3-c3ccccc3)SC2)cc1OC | -5.8% (inactive)
24 | C[C@]1(c2nc3c(C(N)=O)cccc3[nH]2)CCCN1 | 8.64% (inactive)
25 | COc1ccc(CNc2nc(N3CCC[C@H]3CO)ncc2C(=O)NCc2ncccn2)cc1Cl | -5.08% (inactive)
26 | CN1c2ccc(-c3ccc(C#N)cc3)cc2[C@H]2[C@H](CCN2S(=O)(=O)c2ccc(F)cc2)[C@H]1CO | 10.6% (inactive)

same assay, conditions: A549 viability, CellTiter-Glo ATP luminescence, 72 h; at 50 µM (top of the series)

Row | SMILES | activity change, negative = cytotoxicity
27 | O=P1(NCCCl)OCCCN1CCCl (stereo not drawn) | 1.11% (inactive)

same assay, conditions: A549 viability, CellTiter-Glo ATP luminescence, 72 h; at 100 µM (top of the series)

Row | SMILES | activity change, negative = cytotoxicity
28 | CCC(C)C(=O)OC1CC(C)C=C2C=CC(C)C(CCC(O)CC(O)CC(=O)O)C21 (stereo not drawn) | -13.1% (inactive)

same assay, conditions: A549 viability, CellTiter-Glo ATP luminescence, 72 h; at 110 µM (top of the series)

Row | SMILES | activity change, negative = cytotoxicity
29 | O=C(c1cc(Cc2n[nH]c(=O)c3ccccc23)ccc1F)N1CCN(C(=O)C2CC2)CC1 | -14.2% (inactive)

tested on: A549 viability, CellTiter-Glo ATP luminescence, 72 h; assay: as above; details: not given

Row | SMILES | AC35
30 | COc1ccc(C(=O)CC2(O)C(=O)Nc3c(Cl)ccc(Cl)c32)cc1 (stereo not drawn) | 5.48 µM
31 | CN(C)c1ccc2c(c1)OC(N)=C(C#N)C2c1cccc(F)c1 (stereo not drawn) | 0.0738 µM
32 | C[C@@]1(C(=O)Nc2ccc(F)nc2)CCCN1c1nc(Nc2cc(C3CC3)[nH]n2)c2cccn2n1 | 3.48 µM
33 | Cc1nc(Nc2ncc(C(=O)Nc3c(C)cccc3Cl)s2)cc(N2CCN(CCO)CC2)n1 | 12.2 µM
34 | N#CC1=C(N)Oc2cc(N)ccc2C1c1cccc(F)c1 (stereo not drawn) | 10.8 µM
35 | N#CC1=C(N)Oc2cc(N)ccc2C1c1ccccc1Cl (stereo not drawn) | 32.9 µM
36 | O=C(Cc1ccc(-c2ccc(OCCN3CCOCC3)cc2)cn1)NCc1ccccc1 | 0.0854 µM
37 | Cc1cc(Nc2cc(N3CCN(C)CC3)nc(Sc3ccc(NC(=O)C4CC4)cc3)n2)n[nH]1 | 10.2 µM
38 | N#CC1=C(N)Oc2cc(OC(=O)c3ccccc3)ccc2C1c1cccc(Br)c1 (stereo not drawn) | 19.4 µM
39 | CN1c2ccc(-c3ccc(C#N)cc3)cc2[C@H]2[C@H](CCN2S(=O)(=O)c2cccc(F)c2)[C@H]1CO | 6.56 µM
40 | C=C([C@@H](O)[C@@H](C)O)[C@@H](OC)[C@]1(C)Cc2cc3cc(O[C@H]4CC(OC5CC(O)C(O)C(C)O5)C(O)C(C)O4)cc(O)c3c(O)c2C(=O)[C@H]1OC1CC(OC2CC(OC3CC(C)(O)C(O)C(C)O3)C(O)C(C)O2)C(O)C(C)O1 (stereo partly drawn) | 0.111 µM
41 | COc1ccc(S(=O)(=O)N2CC[C@@H]3[C@@H](CO)Nc4ccc(-c5ccc(C#N)cc5)cc4[C@@H]32)cc1 | 9.8 µM
42 | CN1CCN(CCOc2cc(OC3CCOCC3)c3c(Nc4c(Cl)ccc5c4OCO5)ncnc3c2)CC1 | 26.1 µM
43 | COc1ccccc1-c1nnc2n1N=C(c1ccc3c(c1)OCO3)CS2 | 0.102 µM
44 | COc1cccc(S(=O)(=O)N2CC[C@@H]3[C@@H](CO)Nc4ccc(-c5ccc(C#N)cc5)cc4[C@@H]32)c1 | 26.4 µM
45 | COc1ccc(S(=O)(=O)N2CC[C@@H]3[C@H](CO)Nc4ccc(-c5ccc(C#N)cc5)cc4[C@@H]32)cc1 | 10.7 µM
46 | COc1ccc(S(=O)(=O)N2CC[C@@H]3[C@@H](CO)Nc4ccc(-c5cccc(C#N)c5)cc4[C@@H]32)cc1 | 13.2 µM
47 | COc1ccc(-c2ccc3c(c2)[C@H]2[C@H](CCN2S(=O)(=O)c2ccc(OC)cc2)[C@@H](CO)N3)cc1 | 12.5 µM
48 | CCc1c2c(nc3ccc(O)cc13)-c1cc3c(c(=O)n1C2)COC(=O)C3(O)CC (stereo not drawn) | 0.579 µM
49 | CC(C)N1c2ccccc2C(c2ccc(F)cc2)C1/C=C/C(O)CC(O)CC(=O)O (stereo not drawn) | 23.9 µM
50 | COc1ccc(S(=O)(=O)N2CC[C@@H]3[C@@H](CO)N(C)c4ccc(-c5ccc(F)cc5)cc4[C@@H]32)cc1 | 7.15 µM
51 | COc1cc(C2C(C#N)=C(N)Oc3cc(N(C)C)ccc32)cc2c1OCO2 (stereo not drawn) | 0.0402 µM
52 | N#CC1=C(N)Oc2cc(N)ccc2C1c1cccc(Br)c1 (stereo not drawn) | 0.488 µM
53 | COc1ccc(C2=Nn3c(nnc3-c3ccccc3F)SC2)cc1OC | 6.11 µM
54 | N#CC1=C(N)Oc2cc(N)ccc2C1c1ccc2ccccc2c1 (stereo not drawn) | 28.4 µM

Row | SMILES | AC35
55 | Cn1cc(-c2ccncc2)c(-c2ccc(OCc3ccc4ccccc4n3)cc2)n1 | 19.3 µM
56 | Cc1c([C@H](C(Cl)Cl)[C@H](O)[C@H]2C[C@H](C)C(=O)O2)ccc2c1C(=O)[C@H]1[C@H]2C[C@@H](Br)[C@@]23O[C@@H](CO[C@H]2O)C[C@]13C | 3.44 µM
57 | COc1ccc(OC)c(-c2nnc3n2N=C(c2ccc(OC)c(OC)c2)CS3)c1 | 0.192 µM and 0.123 µM
58 | COc1ccc(C2=Nn3c(nnc3-c3ccccc3OC)SC2)cc1OC | 0.205 µM
59 | N#CC1=C(N)Oc2cc(O)ccc2C1c1cccc(Br)c1 (stereo not drawn) | 11.4 µM
60 | COc1ccc(-c2ccc3c(c2)[C@H]2[C@H](CCN2S(=O)(=O)c2ccc(OC)cc2)[C@@H](CO)N3C)cc1 | 9.11 µM
61 | COc1ccc(-c2cc(NC=O)c3ncc(-c4ccc(OC)c(OC)c4)n3c2)cc1 | 1.18 µM
62 | COc1ccccc1-c1nnc2n1N=C(c1ccc(O)c(O)c1)CS2 | 0.314 µM
63 | COc1ccc(-c2cc(NC(C)=O)c3ncc(-c4ccc(OC)c(OC)c4)n3c2)cc1 | 29.9 µM
64 | Nc1ccn([C@@H]2O[C@H](CO)[C@H](O)C2O)c(=O)n1 (stereo partly drawn) | 0.686 µM
65 | N#Cc1ccc(-c2ccc3c(c2)[C@H]2[C@H](CCN2S(=O)(=O)c2cccc(F)c2)[C@@H](CO)N3)cc1 | 21.4 µM
66 | Clc1ccccc1-c1nnc2n1N=C(c1ccc3c(c1)OCO3)CS2 | 0.945 µM
67 | N#CC1=C(N)Oc2cc3c(cc2C1c1cccc(Br)c1)OCO3 (stereo not drawn) | 0.0624 µM
68 | COc1ccc(C2=Nn3c(nnc3-c3ccccc3Cl)SC2)cc1OC | 3.06 µM
69 | CC[C@]1(O)CC2CN(CCc3c([nH]c4ccccc34)[C@@](C(=O)OC)(c3cc4c(cc3OC)N(C=O)[C@H]3[C@@](O)(C(=O)OC)[C@H](OC(C)=O)[C@]5(CC)C=CCN6CC[C@]43[C@@H]65)C2)C1 (stereo partly drawn) | 0.285 µM
70 | N#CC1=C(N)Oc2ccc3ccccc3c2C1c1cccc(F)c1 (stereo not drawn) | 3.88 µM
71 | N#Cc1ccc(-c2ccc3c(c2)[C@H]2[C@H](CCN2S(=O)(=O)c2ccccc2F)[C@@H](CO)N3)cc1 | 17 µM
72 | N#CC1=C(N)Oc2cc(N)ccc2C1c1ccccc1 (stereo not drawn) | 22.9 µM
73 | COc1ccccc1S(=O)(=O)N1CC[C@@H]2[C@@H](CO)Nc3ccc(-c4ccc(C#N)cc4)cc3[C@@H]21 | 22.6 µM
74 | CCOC(=O)CCNc1cc(N2CCc3ccccc3CC2)nc(-c2ccccn2)n1 | 37.2 µM
75 | Nc1ncnc2c1c(-c1cccc(OCc3ccccc3)c1)cn2C1CC(CN2CCCC2)C1 (stereo not drawn) | 13.7 µM
76 | Cc1cccc(C2C(C#N)=C(N)Oc3cc(N)ccc32)c1 (stereo not drawn) | 3.89 µM
77 | COc1cccc(C2C(C#N)=C(N)Oc3cc(N)ccc32)c1 (stereo not drawn) | 4.76 µM
78 | COc1cccc2c1C(=O)c1c(O)c3c(c(O)c1C2=O)C[C@@](O)(C(=O)CO)C[C@@H]3O[C@H]1C[C@H](N)[C@H](O)[C@H](C)O1 | 0.333 µM
